The source of these data is patent US11066414B2, “Cot modulators and methods of use thereof” (Gilead Sciences, Inc., priority 2015, dated 2021).

Read-outs that look alike come from different tables or passages of the source.

One assay has as its target Human Cot (Homo sapiens (Human), UniProt P41279). Nature of the assay: High Throughput Cot Biochemical Assay. Conditions: Cot HTRF (TR-FRET KinEASE) biochemical assay, 400 μM ATP. (TR-FRET usually uses a lanthanide donor and a delayed reading to cut background.)
The subject of another assay is TNFα. Nature of the assay: Cot Monocyte TNFα Cell Based Assay.
Setting [1] is: Homo sapiens, Monocyte, read-out: EC50 TNF, LPS-stimulated human monocytes, TNFα TR-FRET.
[2] abbreviates: read-out: EC50 TNF, LPS-stimulated human monocytes, TNFα TR-FRET.

As usually defined, the IC50 is the concentration that gives 50% inhibition. Usually EC50 stands for the concentration at which the effect is half-maximal.

Human Cot, sequence (P41279 30-397): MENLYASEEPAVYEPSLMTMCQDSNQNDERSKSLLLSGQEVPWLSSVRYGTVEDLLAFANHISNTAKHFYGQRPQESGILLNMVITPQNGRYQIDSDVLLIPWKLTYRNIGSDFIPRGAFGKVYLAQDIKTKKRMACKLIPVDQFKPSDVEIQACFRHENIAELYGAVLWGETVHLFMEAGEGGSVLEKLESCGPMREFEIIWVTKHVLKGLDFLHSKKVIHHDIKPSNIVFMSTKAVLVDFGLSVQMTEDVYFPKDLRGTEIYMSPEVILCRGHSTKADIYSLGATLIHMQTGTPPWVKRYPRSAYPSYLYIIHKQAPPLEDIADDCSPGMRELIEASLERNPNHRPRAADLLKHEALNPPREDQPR

Compound `Cn1ccc2c([C@H](Nc3cc(C#N)c4ncc(C#N)c(NCC(C)(C)C)c4c3)c3cn(C4(CF)CC4)nn3)cccc2c1=O` [Example 878, (S)-6-(((1-(1-(fluoromethyl)cyclopropyl)-1H-1,2,3-triazol-4-yl)(2-methyl-1-oxo-1,2-dihydroisoquinolin-5-yl)methyl)amino)-4-(neopentylamino)quinoline-3,8-dicarbonitrile] had an IC50 at Human Cot (IC50 HTRF) of 2 nM. In the assay on TNFα (setting [1]), the EC50 was determined as 31 nM.

`Cn1ccc2c([C@H](Nc3cc(C#N)c4ncc(C#N)c(NCC(C)(C)C)c4c3)c3cn(C4(C)CC4)nn3)cccc2c1=O` [Example 879, (S)-6-(((2-methyl-1-oxo-1,2-dihydroisoquinolin-5-yl)(1-(1-methylcyclopropyl)-1H-1,2,3-triazol-4-yl)methyl)amino)-4-(neopentylamino)quinoline-3,8-dicarbonitrile]: on Human Cot (IC50 HTRF), the IC50 turned out to be 1 nM. In the assay on TNFα (setting [1]), the EC50 is 13 nM.

With `Cn1ccc2c([C@H](Nc3cc(C#N)c4ncc(C#N)c(NCC(C)(C)C)c4c3)c3cn(C(CF)CF)nn3)cccc2c1=O` [Example 880, (S)-6-(((1-(l,3-difluoropropan-2-yl)-1H-1,2,3-triazol-4-yl)(2-methyl-1-oxo-1,2-dihydroisoquinolin-5-yl)methyl)amino)-4-(neopentylamino)quinoline-3,8-dicarbonitrile], the half-maximal inhibitory concentration (IC50) at Human Cot (read-out: IC50 HTRF) was 3 nM. Moreover, in the assay on TNFα (setting [2]), the EC50 is 80 nM.

`Cn1ccc2c([C@H](Nc3cc(C#N)c4ncc(C#N)c(NCC(C)(C)C)c4c3)c3cn(C4(C5CC5)CC4)nn3)cccc2c1=O` [Example 881, (S)-6-(((4-(1-(1-bi(cyclopropan)]-1-yl)-1H-1,2,3-triazol-4-yl)(2-methyl-1-oxo-1,2-dihydroisoquinolin-5-yl)methyl)amino)-4-(neopentylamino)quinoline-3,8-dicarbonitrile]: on Human Cot (read-out: IC50 HTRF), the IC50 worked out at 2 nM. Moreover, the EC50 with TNFα (setting [2]) was 13 nM.

`Cn1ccc2c([C@H](Nc3cc(C#N)c4ncc(C#N)c(NCC(C)(C)C(F)(F)F)c4c3)c3cn(C4(C5CC5)CC4)nn3)cccc2c1=O` [Example 882, (S)-6-(((1-([1,1′-bi(cyclopropan)]-1-yl)-1H-1,2,3-triazol-4-yl)(2-methyl-1-oxo-1,2-dihydroisoquinolin-5-yl)methyl)amino)-4-((3,3,3-trifluoro-2,2-dimethylpropyl)amino)quinoline-3,8-dicarbonitrile] yielded a concentration for half-maximal inhibition (IC50) against Human Cot (IC50 HTRF) of 2 nM. Further, the half-maximal effective concentration (EC50) in the assay on TNFα (setting [1]) stood at 18 nM.

The compound `Cn1ccc2c([C@H](Nc3cc(C#N)c4ncc(C#N)c(NCC(C)(C)C(F)(F)F)c4c3)c3cn(C45CC(C4)C5)nn3)cccc2c1=O` [Example 883, (S)-6-(((1-(bicyclo[1.1.1]pentan-1-yl)-1H-1,2,3-triazol-4-yl)(2-methyl-1-oxo-1,2-dihydroisoquinolin-5-yl)methyl)amino)-4-((3,3,3-trifluoro-2,2-dimethylpropyl)amino)quinoline-3,8-dicarbonitrile] came in with an IC50 against Human Cot (IC50 HTRF) of 1 nM. Further, the concentration giving a half-maximal response (EC50) in the assay on TNFα (setting [1]) was 13 nM.

Turning to `Cn1ccc2c([C@H](Nc3cc(C#N)c4ncc(C#N)c(NCC(C)(C)C(F)(F)F)c4c3)c3cn(C4(C)CC4)nn3)cccc2c1=O` [Example 884, (S)-6-(((2-methyl-1-oxo-1,2-dihydroisoquinolin-5-yl)(1-(1-methylcyclopropyl)-1H-1,2,3-triazol-4-yl)methyl)amino)-4-((3,3,3-trifluoro-2,2-dimethylpropyl)amino)q uin oline-3,8-dicarbonitrile], the midpoint of inhibition against Human Cot (IC50 HTRF), the IC50, lay at 1 nM. Further, in the assay on TNFα (setting [1]), the EC50 was 19 nM.

On Human Cot (IC50 HTRF), `COc1ncccc1[C@H](Nc1cc(C#N)c2ncc(C#N)c(NCC(C)(C)C)c2c1)c1cn(C2(C(F)(F)F)CC2)nn1` [Example 885, (S)-6-(((2-methoxypyridin-3-yl)(1-(1-(trifluoromethyl)cyclopropyl)-1H-1,2,3-triazol-4-yl)methyl)amino)-4-(neopentylamino)quinoline-3,8-dicarbonitrile] displayed a 50% inhibitory concentration (IC50) of 10 nM. Moreover, the 50% effective concentration (EC50) with TNFα (setting [1]) was 132 nM.

Compound `Cn1ccc2c([C@H](Nc3cc(C#N)c4ncc(C#N)c(NCC(C)(C)C(F)(F)F)c4c3)c3cn(C4(C(F)(F)F)CC4)nn3)cccc2c1=O` [Example 886, (S)-6-(((2-methyl-1-oxo-1,2-dihydroisoquinolin-5-yl)(1-(1-(trifluoromethyl)-cyclopropyl)-1H-1,2,3-triazol-4-yl)methyl)-amino)-4-((3,3,3-trifluoro-2,2-dimethylpropyl)-amino)quinoline-3,8-dicarbonitrile] displayed an IC50 against Human Cot (IC50 HTRF) of 3 nM. In addition, the EC50 in the assay on TNFα (setting [1]) stood at 30 nM.

Turning to `Cn1c(=O)ccc2c([C@H](Nc3cc(C#N)c4ncc(C#N)c(NCC(C)(C)C)c4c3)c3cn(C45CC(C4)C5)nn3)cccc21` [Example 887, (S)-6-(((1-(bicyclo[1.1.1]pentan-1-yl)-1H-1,2,3-triazol-4-yl)(1-methyl-2-oxo-1,2-dihydroquinolin-5-yl)methyl)amino)-4-(neopentylamino)quinoline-3,8-dicarbonitrile], the IC50 against Human Cot (IC50 HTRF) was found to be 3 nM. Moreover, the concentration for a half-maximal effect (EC50) in the assay with TNFα (setting [1]) amounted to 33 nM.

On to `CC(C)(C)CNc1c(C#N)cnc2c(C#N)cc(N[C@H](c3cn(C45CC(C4)C5)nn3)c3cccc4c(=O)[nH]ccc34)cc12` [Example 888, (S)-6-(((1-(bicyclo[1.1.1]pentan-1-yl)-1H-1,2,3-triazol-4-yl)(1-oxo-1,2-dihydroisoquinolin-5-yl)methyl)amino)-4-(neopentylamino)quinoline-3,8-dicarbonitrile], for which the concentration for half-maximal inhibition (IC50) on Human Cot (IC50 HTRF) amounted to 2 nM. The EC50 in the assay on TNFα (setting [1]) was 165 nM.

At Human Cot (IC50 HTRF), `CC(C)(C)CNc1c(C#N)cnc2c(C#N)cc(N[C@H](c3cn(C4(C(F)(F)F)CC4)nn3)c3cccc4c(=O)n(C(F)F)ccc34)cc12` [Example 889, (S)-6-(((2-(difluoromethyl)-1-oxo-1,2-dihydroisoquinolin-5-yl)(1-(1-(trifluoromethyl)cyclopropyl)-1H-1,2,3-triazol-4-yl)methyl)amino)-4-(neopentylamino)quinoline-3,8-dicarbonitrile] came in with an IC50 of 9 nM. Besides, the concentration for a half-maximal effect (EC50) with TNFα (setting [1]) turned out to be 104 nM.

Turning to `Cn1c(=O)ccc2c([C@H](Nc3cc(C#N)c4ncc(C#N)c(NCC(C)(C)C)c4c3)c3cn(C4(C(F)(F)F)CC4)nn3)cccc21` [Example 890, (S)-6-(((1-methyl-2-oxo-1,2-dihydroquinolin-5-yl)(1-(1-(trifluoromethyl)cyclopropyl)-1H-1,2,3-triazol-4-yl)methyl)amino)-4-(neopentylamino)quinoline-3,8-dicarbonitrile], the IC50 against Human Cot (IC50 HTRF) stood at 6 nM. Moreover, the EC50 in the assay on TNFα (setting [1]) was 68 nM.

As to `Cn1ccc2c([C@H](Nc3cc(C#N)c4ncc(C#N)c(NCC(C)(C)C)c4c3)c3cn(C45CC(C4)C5)nn3)cccc2c1=O` [Example 891, (S)-6-(((1-(bicyclo[1.1.1]pentan-1-yl)-1H-1,2,3-triazol-4-yl)(2-methyl-1-oxo-1,2-dihydroisoquinolin-5-yl)methyl)amino)-4-(neopentylamino)quinoline-3,8-dicarbonitrile], the midpoint of inhibition on Human Cot (IC50 HTRF), the IC50, lay at 1 nM. Also, in the assay with TNFα (setting [1]), the EC50 was 12 nM.

On to `C[C@@H](CF)n1cc([C@@H](Nc2cc(C#N)c3ncc(C#N)c(NCC(C)(C)C)c3c2)c2cccc3ncccc23)nn1` [Example 892, 6-(((S)-(1-((S)-1-fluoropropan-2-yl)-1H-1,2,3-triazol-4-yl)(quinolin-5-yl)methyl)amino)-4-(neopentylamino)quinoline-3,8-dicarbonitrile], for which, on Human Cot (IC50 HTRF), the IC50 worked out at 2 nM. The concentration giving a half-maximal response (EC50) in the assay with TNFα (setting [1]) worked out at 44 nM.

`CC(C)(C)CNc1c(C#N)cnc2c(C#N)cc(N[C@H](c3cn(C(CF)CF)nn3)c3cccc4ncccc34)cc12` [Example 893, (S)-6-(((1-(1,3-difluoropropan-2-yl)-1H-1H-1,2,3-triazol-4-yl)(quinolin-5-yl)methyl)amino)-4-(neopentyl-amino)quinoline-3,8-dicarbonitrile]: the IC50 on Human Cot (read-out: IC50 HTRF) worked out at 4 nM. In the assay with TNFα (setting [2]), the EC50 is 99 nM.

Take `CC(C)(CNc1c(C#N)cnc2c(C#N)cc(N[C@H](c3cn(C4(C(F)F)CC4)nn3)c3cccc4ncccc34)cc12)C(F)(F)F` [Example 894]: the IC50 on Human Cot (read-out: IC50 HTRF) turned out to be 3 nM. For the same compound, in the assay on TNFα (setting [2]), the EC50 stood at 54 nM.

`CC(C)(CNc1c(C#N)cnc2c(C#N)cc(N[C@H](c3cn(C4(C5CC5)CC4)nn3)c3cccc4ncccc34)cc12)C(F)(F)F` [Example 896, (S)-6-(((1-([1,1′-bi(cyclopropan)]-1-yl)-1H-1,2,3-triazol-4-yl)(quinolin-5-yl)methyl)amino)-4-((3,3,3-trifluoro-2,2-dimethylpropyl)amino)quinoline-3,8-dicarbonitrile] registered a 50% inhibitory concentration (IC50) against Human Cot (IC50 HTRF) of 3 nM. The concentration giving a half-maximal response (EC50) in the assay on TNFα (setting [1]) is 30 nM.

With `CC(C)(CNc1c(C#N)cnc2c(C#N)cc(N[C@H](c3cn(C45CC(C4)C5)nn3)c3cccc4ncccc34)cc12)C(F)(F)F` [Example 897, (S)-6-(((1-(bicyclo[1.1.1]pentan-1-yl)-1H-1,2,3-triazol-4-yl)(quinolin-5-yl)methyl)amino)-4-((3,3,3-trifluoro-2,2-dimethylpropyl)amino)quinoline-3,8-dicarbonitrile], inhibition against Human Cot (IC50 HTRF) was half-maximal at 2 nM (IC50). For the same compound, the concentration for a half-maximal effect (EC50) in the assay on TNFα (setting [1]) was determined as 18 nM.

At Human Cot (IC50 HTRF), `CC(C)(C)CNc1c(C#N)cnc2c(C#N)cc(N[C@H](c3cn([C@@H]4C[C@@H]4F)nn3)c3cccc4ncccc34)cc12` [Example 899, 6-(((S)-(1-((1R,2S)-2-fluorocyclopropyl)-1H-1,2,3-triazol-4-yl)(quinolin-5-yl)methyl)amino)-4-(neopentylamino)quinoline-3,8-dicarbonitrile] showed an IC50 of 2 nM. In the assay with TNFα (setting [1]), the EC50 was 29 nM.

`Cc1ccc2c([C@H](Nc3cc(C#N)c4ncc(C#N)c(NCC(C)(C)C)c4c3)c3cn(C45CC(C4)C5)nn3)cccc2n1` [Example 900, (S)-6-(((1-(bicyclo[1.1.1]pentan-1-yl)-1H-1,2,3-triazol-4-yl)(2-methylquinolin-5-yl)methyl)amino)-4-(neopentylamino)quinoline-3,8-dicarbonitrile] displayed a half-inhibitory concentration (IC50) on Human Cot (IC50 HTRF) of 3 nM. Besides, the concentration for a half-maximal effect (EC50) in the assay with TNFα (setting [1]) turned out to be 30 nM.
